This is an account of results in US20050233970A1, “Methods for treating long QT syndrome” (priority 2004, published 2005).

Read-outs that look alike come from different tables or passages of the source. Square brackets hold non-standard residues; d marks the D form. Peptide text beside a SMILES is read from it. dPhe(4-Cl) = N[C@H](Cc1ccc(Cl)cc1)C(=O)O; d2Nal = N[C@H](Cc1ccc2ccccc2c1)C(=O)O; Lys(iPr) = CC(C)NCCCC[C@H](N)C(=O)O; NMeY = CN[C@@H](Cc1ccc(O)cc1)C(=O)O; d3Pal = N[C@H](Cc1cccnc1)C(=O)O

Data set [1] deals with QT interval. To be noted: human, in vivo. On the procedure:
Abarelix was given as a dose of 100 mg IM on days 1, 15, 29 and every 28 days thereafter for 48 weeks. Prospectively, a standard 12-lead ECG was performed at baseline and on days 85 and 337. Plasma testosterone samples were obtained at the same time. All ECG's were analyzed in a blinded fashion to treatment allocation. Each ECG was analyzed in comparison to its respective baseline for heart rate, QRS duration, PR interval, QT interval, and QTc. Concomitant medicines and prior medical history was recorded on all patients. Patients with a baseline QT of >450 msec were to be excluded from the study. If a patient experienced a QTcB of ≧500 msec while on study, therapy was to be discontinued. […] They are the focus of this report.

Data set [2] deals with testosterone. As to the kind of experiment: Studies II and III: plasma testosterone (radioimmunoassay) on ECG study days. In kind it is in vivo, human. On the procedure:
QTcB and QTcF were calculated utilizing standard formulas.^(F)
Laboratory analysis of testosterone and dihydrotestosterone were determined using certified central laboratories and standard radioimmunoessay methods.

Data set [3] relates to testosterone. The data set can be described thus: Study I: plasma testosterone (radioimmunoassay) on ECG study days. The data set is classed as in vivo, human. On the procedure:
Abarelix was given as a dose of 100 mg IM on days 1, 15, 29 and every 28 days thereafter for 48 weeks. […] Plasma testosterone samples were obtained at the same time. All ECG's were analyzed in a blinded fashion to treatment allocation. Each ECG was analyzed in comparison to its respective baseline for heart rate, QRS duration, PR interval, QT interval, and QTc. Concomitant medicines and prior medical history was recorded on all patients. […] If a patient experienced a QTcB of ≧500 msec while on study, therapy was to be discontinued. Laboratory analysis of testosterone and dihydrotestosterone were determined using certified central laboratories and standard radioimmunoessay methods.

Data set [4] relates to QT interval. The conditions noted are these: human, in vivo. This is another data set of the same source.
Experimental: Studies II and III required an ECG at baseline and on day 169 and, if the patient continued, on day 365. […] The ECG machine-calculated heart rate and QT interval were entered into a database. QTcB and QTcF were calculated utilizing standard formulas.^(F)
QTc evaluations included measurement of baseline, post baseline, on-therapy and change from baseline in QTcB and QTcF in each treatment group.
ECG measurement of QTcB and QTcF were calculated based on standard QT and heart rate measurements. T-tests were used to evaluate intra as well as inter-treatment change from baseline for each treatment group. Comparisons between treatment groups were performed in a pair wise manner.

For `CC(=O)N[C@H](Cc1ccc2ccccc2c1)C(=O)N[C@H](Cc1ccc(Cl)cc1)C(=O)N[C@H](Cc1cccnc1)C(=O)N[C@@H](CO)C(=O)N(C)[C@@H](Cc1ccc(O)cc1)C(=O)N[C@H](CC(N)=O)C(=O)N[C@@H](CC(C)C)C(=O)N[C@@H](CCCCNC(C)C)C(=O)N1CCC[C@H]1C(=O)N[C@H](C)C(N)=O` [Abarelix, abarelix] (Ac-[d2Nal][dPhe(4-Cl)][d3Pal]S[NMeY][dN]L[Lys(iPr)]P[dA]-NH2), the “QTcB Baseline” value was 413.5 (26.8) msec in the data set on QT interval [1] and 417.9 (28.6) msec in the data set with QT interval [4]. Besides, the entries for the “QTcB On Therapy” value in the data set with QT interval [1] and in the data set with QT interval [4] were 426.8 (22.9) msec and 431.7 (29.8) msec, respectively. For the same compound, the “QTcF Baseline” value in the data set on QT interval [1] is reported as 404.6 (23.5) msec; in the data set on QT interval [4] it was 410.6 (28.1) msec. Further, the “QTcF Change from Baseline” value in the data set with QT interval [1] is listed as 12.0 (16.2) msec. Moreover, the “QTcF On Therapy” value was 419.5 (21.3) msec in the data set with QT interval [1] and 423.4 (28.0) msec in the data set on QT interval [4]. The “Testosterone Levels, Median” value with testosterone [2] (Baseline) is on record as 361 ng/dL; in the data set with testosterone [2] (Day 169), 14 ng/dL; with testosterone [3] (Baseline), 316 ng/dL; in the data set with testosterone [3] (Day 85), 23 ng/dL; in the data set on testosterone [3] (Day 337), 35 ng/dL.
As to `CCNC(=O)[C@@H]1CCCN1C(=O)[C@H](CCCNC(=N)N)NC(=O)[C@H](CC(C)C)NC(=O)[C@@H](CC(C)C)NC(=O)[C@H](Cc1ccc(O)cc1)NC(=O)[C@H](CO)NC(=O)[C@H](Cc1c[nH]c2ccccc12)NC(=O)[C@H](Cc1c[nH]cn1)NC(=O)[C@@H]1CCC(=O)N1` [Leuprolide, leuprolide], the “Testosterone Levels, Median” value in the data set with testosterone [2] (Baseline) is recorded as 342 ng/dL. The “Testosterone Levels, Median” value in the data set on testosterone [2] (Day 169) was determined as 9 ng/dL. Besides, in the data set with QT interval [4], the “QTcB Baseline” value was 421.6 (29.4) msec, the “QTcB On Therapy” value is on record as 441.6 (25.8) msec, the “QTcF Baseline” value was 414.5 (26.0) msec and the “QTcF On Therapy” value is reported as 432.1 (23.6) msec.
